Data on 48 molecules can be found in US7388017B2, “Inhibitors of serine proteases, particularly hepatitis C virus NS3 protease” (Vertex Pharmaceuticals Incorporated, priority 1996, dated 2008).

Starred links: 1 amine or outer side, 2 acyl side, 3 side chain; linkers in the order of their positions; H or OH if unused. Non-standard residues stand in square brackets, D forms with d. Residues, ends and D or L forms follow the SMILES beside them. ξ: configuration not given here. *: point of attachment. X23 = CCC(N*)C(=O)c1ncc(-c2c(Cl)cccc2Cl)o1; Bip = N[CH](Cc1ccc(-c2ccccc2)cc1)C(=O)O; X45 = O=C([C@@H]1C2CC2CN1[*:1])[*:2]; 1Nal = N[CH](Cc1cccc2ccccc12)C(=O)O; 2Nal = N[CH](Cc1ccc2ccccc2c1)C(=O)O; Hydrocinnamoyl = O=C(CCc1ccccc1)*; Pyrazinecarbonyl = O=C(c1cnccn1)*; X41 = CCC(N*)C(=O)c1nc2ccccc2o1; 3Pal = N[CH](Cc1cccnc1)C(=O)O; Hyp = O=C(O)[CH]1C[CH](O)CN1; X12 = CCC(N*)C(=O)c1nccs1; Abu = CC[CH](N)C(=O)O; CO = O=C([*:1])[*:2]; Bz = O=C(c1ccccc1)*; NHPh = c1ccc(N*)cc1; ξAbu = CCC(N)C(=O)O; Bn = c1ccc(C*)cc1

One test deals with T1, HCV NS3 protease (Hepatitis C virus genotype 1a, UniProt P27958).
T1 construct: more particularly HCV NS3 proteases
T1 sequence (P27958 1027-1208): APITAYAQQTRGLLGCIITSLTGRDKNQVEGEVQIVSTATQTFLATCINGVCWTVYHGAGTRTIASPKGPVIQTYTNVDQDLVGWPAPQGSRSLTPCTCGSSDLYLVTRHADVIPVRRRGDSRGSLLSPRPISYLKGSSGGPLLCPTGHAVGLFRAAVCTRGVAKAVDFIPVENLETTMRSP
Briefly: Enzyme inhibition of HCV NS3 serine protease (cleavage of peptide substrate / EDVV AbuC-p-nitroanilide, with or without NS4A). It counts as biochemical.
Details: not given
An outline of the steps: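 Spectrophotometric assay at 30 °C following pNA release at 405 nm from EDVV AbuC-pNA substrate, with or without NS4A. Ki from rate versus [inhibitor] fitted to Morrison's tight-binding competitive inhibition equation; Kii/Kis from mixed-inhibition fits; values reported in μM.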
The Ki is a dissociation constant, usually derived from enzyme kinetics or from competition with a known ligand. `CCC(NC(=O)C(CC(C)C)NC(=O)C(NC(=O)C(NC(=O)c1cnccn1)C(C)C)C(C)C)C(=O)C(=O)N[C@H](CC)c1ccccc1` (stereo partly drawn) [Compound 120] registered a Ki of 1 to 100 µM.
In turn, `CCC(NC(=O)C(CC(C)C)NC(=O)C(NC(=O)C(NC(=O)c1cnccn1)C(C)C)C(C)C)C(=O)C(=O)N[C@@H](CC)c1ccccc1` (stereo partly drawn) [Compound 121] came in with a Ki greater than 100 µM.

Staying with this test, now noted: Enzyme inhibition data; Ki from rate vs [inhibitor] plots, Morrison tight binding competitive inhibition fit; 30 C, pH 7.8; read-out: Ki.
On to `CCC(NC(=O)C(CC(C)C)NC(=O)C(NC(=O)C(NC(=O)c1cnccn1)C(C)C)C(C)C)C(=O)C(=O)N(CC)CC` (stereo not drawn) [Compound 122], for which the Ki is greater than 100 µM.
Regarding `CCC(NC(=O)C(CC(C)C)NC(=O)C(NC(=O)C(NC(=O)c1cnccn1)C(C)C)C(C)C)C(=O)C(=O)NCC(C)OC` (stereo not drawn) [Compound 123], the inhibition constant (Ki) was in the range of 1 to 100 µM.
With `CCC(NC(=O)C(CC(C)C)NC(=O)C(NC(=O)C(NC(=O)C(CC(=O)O)NC(=O)C(N)CCC(=O)O)C(C)C)C(C)C)C(=O)c1nc2ccccc2o1` (stereo not drawn) [Compound 124] (H-EDVVL-X41; configuration not given here), the Ki fell in the range of 1 to 100 µM.
Turning to `CCC(NC(=O)C(CC(C)C)NC(=O)C(NC(=O)C(NC(=O)C(CC(=O)O)NC(=O)C(N)CCC(=O)O)C(C)C)C(C)C)C(=O)c1nccs1` (stereo not drawn) [Compound 125] (H-EDVVL-X12; configuration not given here), the inhibition constant Ki fell in the range of 1 to 100 µM.
For the molecule `CCC(NC(=O)C(CC(C)C)NC(=O)C(NC(=O)C(NC(=O)C(CC(=O)O)NC(=O)C(N)CCC(=O)O)C(C)C)C(C)C)C(=O)c1ncc(-c2c(Cl)cccc2Cl)o1` (stereo not drawn) [Compound 126] (H-EDVVL-X23; configuration not given here), the inhibitory constant (Ki) is greater than 100 µM.
On the same count and under the same terms, under `CCC(C=O)NC(=O)C1CC(OCc2ccccc2)CN1C(=O)C(NC(=O)C(Cc1cccnc1)NC(=O)c1cnccn1)C(C)C` (stereo not drawn) [Compound 127] (Pyrazinecarbonyl-[3Pal]V[Hyp](Bn)[Abu]-aldehyde; configuration not given here) stands greater than 100 µM; under `CCC(C=O)NC(=O)C1CC(OCc2ccccc2)CN1C(=O)C(NC(=O)C(Cc1ccc(-c2ccccc2)cc1)NC(=O)c1cnccn1)C(C)C` (stereo not drawn) [Compound 130] (Pyrazinecarbonyl-[Bip]V[Hyp](Bn)[Abu]-aldehyde; configuration not given here), greater than 100 µM.
On to `CCC(C=O)NC(=O)C1CC(OCc2ccccc2)CN1C(=O)C(NC(=O)C(Cc1cccc2ccccc12)NC(=O)c1cnccn1)C(C)C` (stereo not drawn) [Compound 131] (Pyrazinecarbonyl-[1Nal]V[Hyp](Bn)[Abu]-aldehyde; configuration not given here), for which the inhibitory constant (Ki) was 1 to 100 µM.
Same read-out and setting: the value for `CCC(C=O)NC(=O)C1CC(OCc2ccccc2)CN1C(=O)C(NC(=O)C(Cc1ccc2ccccc2c1)NC(=O)c1cnccn1)C(C)C` (stereo not drawn) [Compound 132] (Pyrazinecarbonyl-[2Nal]V[Hyp](Bn)[Abu]-aldehyde; configuration not given here) was 1 to 100 µM.
Regarding `CCC(C=O)NC(=O)C1CC(OCc2ccccc2)CN1C(=O)C(NC(=O)C(Cc1c[nH]cn1)NC(=O)c1cnccn1)C(C)C` (stereo not drawn) [Compound 134] (Pyrazinecarbonyl-HV[Hyp](Bn)[Abu]-aldehyde; configuration not given here), the Ki is greater than 100 µM.
Same read-out and setting: the value for `CCC(C=O)NC(=O)C1CC(OCc2ccccc2)CN1C(=O)C(NC(=O)C(Cc1ccccc1)NC(=O)c1cnccn1)C(C)C` (stereo not drawn) [Compound 141] (Pyrazinecarbonyl-FV[Hyp](Bn)[Abu]-aldehyde; configuration not given here) was 1 to 100 µM.
As for `CCC(C=O)NC(=O)C1CC(OCc2ccccc2)CN1C(=O)C(NC(=O)C(NC(=O)c1cnccn1)C(C)OCc1ccccc1)C(C)C` (stereo not drawn) [Compound 142] (Pyrazinecarbonyl-T(Bn)V[Hyp](Bn)[Abu]-aldehyde; configuration not given here), the Ki was in the range of 1 to 100 µM.
For the molecule `CCC(C=O)NC(=O)C1CC(OCc2ccccc2)CN1C(=O)C(NS(=O)(=O)Cc1ccccc1)C(C)C` (stereo not drawn) [Compound 143], the Ki is greater than 100 µM.
In the case of `CCC(C=O)NC(=O)C1CC(OCc2ccccc2)CN1C(=O)C(NS(=O)(=O)c1ccccc1)C(C)C` (stereo not drawn) [Compound 144], the Ki was greater than 100 µM.
Take `CCC(C=O)NC(=O)C1CC(OCc2ccccc2)CN1C(=O)C(NC(=O)Nc1ccccc1)C(C)C` (stereo not drawn) [Compound 145] ({NHPh-CO}-Val-[Hyp](Bn)-[Abu]-aldehyde; configuration not given here): the Ki lay within 1 to 100 µM.
Consider `CCC(C=O)NC(=O)C1CC(OCc2ccccc2)CN1C(=O)C(NC(=O)CCc1ccccc1)C(C)C` (stereo not drawn) [Compound 147] (Hydrocinnamoyl-Val-[Hyp](Bn)-[Abu]-aldehyde; configuration not given here), for which the Ki was greater than 100 µM.
In the case of `CCC(C=O)NC(=O)C1CC(OCc2ccccc2)CN1C(=O)C(NC(=O)c1ccccc1)C(C)C` (stereo not drawn) [Compound 149] (Bz-Val-[Hyp](Bn)-[Abu]-aldehyde; configuration not given here), the Ki is 1 to 100 µM.
Take `CCC(C=O)NC(=O)C1CC(OCc2ccccc2)CN1C(=O)C(NC(=O)Cc1ccc(NC(C)=O)cc1)C(C)C` (stereo not drawn) [Compound 152]: the Ki was greater than 100 µM.
In the case of `CCC(C=O)NC(=O)C1CC(OCc2ccccc2)CN1C(=O)C(NC(=O)c1ccc[nH]1)C(C)C` (stereo not drawn) [Compound 153], the inhibitory constant (Ki) lay in the range of 1 to 100 µM.
In the case of `CCC(C=O)NC(=O)C1CC(OCc2ccccc2)CN1C(=O)C(NC(=O)c1cc2ccccc2[nH]1)C(C)C` (stereo not drawn) [Compound 154], the Ki fell in the range of 1 to 100 µM.
`CCC(C=O)NC(=O)C1CC(OCc2ccccc2)CN1C(=O)C(NC(=O)Cc1csc(N)n1)C(C)C` (stereo not drawn) [Compound 155]: the inhibition constant (Ki) lay in the range of 1 to 100 µM.
With `CCC(C=O)NC(=O)C1CC(OCc2ccccc2)CN1C(=O)C(NC(=O)c1ccc(O)c(Cl)c1)C(C)C` (stereo not drawn) [Compound 156], the inhibition constant (Ki) lay in the range of 1 to 100 µM.
As for `CCC(C=O)NC(=O)C1CC(OCc2ccccc2)CN1C(=O)C(NC(=O)c1nccc2ccccc12)C(C)C` (stereo not drawn) [Compound 158], the Ki fell in the range of 1 to 100 µM.
As for `CCC(C=O)NC(=O)C1CC(OCc2ccccc2)CN1C(=O)C(NC(=O)c1cccc2ccccc12)C(C)C` (stereo not drawn) [Compound 159], the Ki fell in the range of 1 to 100 µM.
For `CCC(C=O)NC(=O)C1CC(OCc2ccccc2)CN1C(=O)C(NC(=O)Cc1ccccc1[N+](=O)[O-])C(C)C` (stereo not drawn) [Compound 161], the inhibitory constant (Ki) was greater than 100 µM.
Turning to `CCC(C=O)NC(=O)C1CC(OCc2ccccc2)CN1C(=O)C(NC(=O)Cc1ccsc1)C(C)C` (stereo not drawn) [Compound 163], the Ki is greater than 100 µM.
As to `CCC(C=O)NC(=O)C1CC(OCc2ccccc2)CN1C(=O)C(NC(=O)C(OC)c1ccccc1)C(C)C` (stereo not drawn) [Compound 164], the inhibition constant Ki was greater than 100 µM.
Consider `CCC(C=O)NC(=O)C1CC(OCc2ccccc2)CN1C(=O)C(NC(=O)CCCc1ccccc1)C(C)C` (stereo not drawn) [Compound 166], for which the Ki was greater than 100 µM.
On to `CCC(C=O)NC(=O)C1CC(OCc2ccccc2)CN1C(=O)C(NC(=O)c1c(O)ccc2ccccc12)C(C)C` (stereo not drawn) [Compound 168], for which the Ki lay within 1 to 100 µM.
As for `CCC(C=O)NC(=O)C1CC(OCc2ccccc2)CN1C(=O)C(NC(=O)COc1ccccc1C=O)C(C)C` (stereo not drawn) [Compound 169], the inhibitory constant (Ki) is greater than 100 µM.
Same read-out and setting: the value for `CCC(C=O)NC(=O)C1CC(OCc2ccccc2)CN1C(=O)C(NC(=O)CCC(=O)c1ccccc1)C(C)C` (stereo not drawn) [Compound 170] was greater than 100 µM; that for `CCC(C=O)NC(=O)C1CC(OCc2ccccc2)CN1C(=O)C(NC(=O)CCOc1ccccc1)C(C)C` (stereo not drawn) [Compound 171] was greater than 100 µM.
In the case of `CCCCC(C(=O)O)C(=O)NC(C(=O)N1CC(OCc2ccccc2)CC1C(=O)NC(C=O)CC)C(C)C` (stereo not drawn) [Compound 172], the Ki is greater than 100 µM.
The same measure, in the same setting: the value for `CCCC(C(=O)NC(C(=O)N1CC(OCc2ccccc2)CC1C(=O)NC(C=O)CC)C(C)C)c1ccccc1` (stereo not drawn) [Compound 174] was 1 to 100 µM; that for `CCC(C=O)NC(=O)C1CC(OCc2ccccc2)CN1C(=O)C(NC(=O)c1c[nH]c2ccccc12)C(C)C` (stereo not drawn) [Compound 175] was 1 to 100 µM.
Consider `CCC(C=O)NC(=O)C1CC(OCc2ccccc2)CN1C(=O)C(NC(=O)C1CCCC1c1ccccc1)C(C)C` (stereo not drawn) [Compound 177], for which the Ki is greater than 100 µM.
Turning to `CCC(C=O)NC(=O)C1CC(OCc2ccccc2)CN1C(=O)C(NC(=O)c1c(-c2ccccc2Cl)noc1C)C(C)C` (stereo not drawn) [Compound 182], the inhibition constant (Ki) was greater than 100 µM.
On the same count and under the same terms, the value for `CCC(C=O)NC(=O)C1CC(OCc2ccccc2)CN1C(=O)C(NC(=O)c1c2c(nc3ccccc13)CCCC2)C(C)C` (stereo not drawn) [Compound 183] was 1 to 100 µM; that for `CCC(C=O)NC(=O)C1CC(OCc2ccccc2)CN1C(=O)C(NC(=O)c1c(-c2c(Cl)cccc2Cl)noc1C)C(C)C` (stereo not drawn) [Compound 186] was greater than 100 µM.
For `CCC(C=O)NC(=O)C1CC(OCc2ccccc2)CN1C(=O)C(NC(=O)c1cc(C)oc1C)C(C)C` (stereo not drawn) [Compound 189], the Ki is greater than 100 µM.
Regarding `CCC(C=O)NC(=O)C1CC(OCc2ccccc2)CN1C(=O)C(NC(=O)c1c(C)cc(C)cc1C)C(C)C` (stereo not drawn) [Compound 191], the Ki was greater than 100 µM.
For the molecule `CCC(C=O)NC(=O)C1CC(OCc2ccccc2)CN1C(=O)C(NC(=O)c1cccc(C)c1O)C(C)C` (stereo not drawn) [Compound 192], the inhibitory constant (Ki) is greater than 100 µM.
For the molecule `CCC(C=O)NC(=O)C1CC(OCc2ccccc2)CN1C(=O)C(NC(=O)c1c(C)cccc1C)C(C)C` (stereo not drawn) [Compound 193], the Ki is greater than 100 µM.
For `CCC(C=O)NC(=O)C1CC(OCc2ccccc2)CN1C(=O)C(NC(=O)c1ccccc1Br)C(C)C` (stereo not drawn) [Compound 195], the inhibitory constant (Ki) lay within 1 to 100 µM.
On the same count and under the same terms, under `CCOc1ccc2ccccc2c1C(=O)NC(C(=O)N1CC(OCc2ccccc2)CC1C(=O)NC(C=O)CC)C(C)C` (stereo not drawn) [Compound 197] stands 1 to 100 µM; under `CCC(C=O)NC(=O)[C@@H]1C2CC2CN1C(=O)[C@@H](NC(=O)[C@@H](NC(=O)[C@H](CC(=O)O)NC(=O)[C@H](CCC(=O)O)NC(C)=O)C(C)C)C(C)C` (stereo partly drawn) [Compound 198] (Ac-EDVV[X45][ξAbu]-aldehyde), less than 1 µM.
